Test results taken from patent publication US20110306639A1, “HYDROCARBYLIDENE NITROHYDROZINECARBOXIMIDAMIDES AND A METHOD FOR MAKING THE SAME, AS WELL AS THEIR USES AS AN INSECTICIDE” (priority 2008, published 2011).
Read-outs that look alike come from different tables or passages of the source.

Assays:
[1] = test system: bemisia tabaci gennadius
[2] = test system: myzus persicae
[3] = test system: Helicoverpa armigera
[4] = test system: asparagus caterpillar

Compound	mortality(%) myzus persicae (600 μg/mL) ([2]; in vivo)	mortality(%) Helicoverpa armigera (500 μg/mL) ([3]; 500 μg/mL, 48 hours)	mortality(%) asparagus caterpillar (500 μg/mL) ([4]; in vivo)	also measured
CCNC(=N[N+](=O)[O-])NN=Cc1ccccc1Cl [Compound 125]				mortality(%) bemisia tabaci gennadius (500 μg/mL) ([1]; in vivo): 53.06%
CNC(=N[N+](=O)[O-])NN=Cc1ccccc1Cl [Compound 117]				mortality(%) bemisia tabaci gennadius (500 μg/mL) ([1]; in vivo): 17.78%
CCNC(=N[N+](=O)[O-])NN=Cc1ccc(OC)cc1 [Compound 127]				mortality(%) bemisia tabaci gennadius (500 μg/mL) ([1]; in vivo): 24.56%
CNC(=N[N+](=O)[O-])NN=Cc1ccccc1OC [Compound 119]				mortality(%) bemisia tabaci gennadius (500 μg/mL) ([1]; 500 μg/mL, 48 hours): 72.00%
CCNC(=N[N+](=O)[O-])NN=Cc1ccc(OCC)c(OC)c1 [Compound 126]				mortality(%) bemisia tabaci gennadius (500 μg/mL) ([1]; in vivo): 6.67%
COc1ccc(C=NNC(=N[N+](=O)[O-])NCc2ccccc2)cc1 [Compound 131]				mortality(%) bemisia tabaci gennadius (500 μg/mL) ([1]; in vivo): 1.89%
CNC(=N[N+](=O)[O-])NN=Cc1ccc(N(C)C)cc1 [Compound 120]				mortality(%) bemisia tabaci gennadius (500 μg/mL) ([1]; in vivo): 82.76%
CNC(=N[N+](=O)[O-])NN=Cc1cccc(Oc2ccccc2)c1 [Compound 118]				mortality(%) bemisia tabaci gennadius (500 μg/mL) ([1]; in vivo): 14.81%
CCCNC(=N[N+](=O)[O-])NN=Cc1ccc(OC)cc1 [Compound 130]				mortality(%) bemisia tabaci gennadius (500 μg/mL) ([1]; in vivo): 18.46%
C#CCNC(=N[N+](=O)[O-])NN=CCCCC [Compound 54]	47.6%	40%	10%	
CCCCNC(=N[N+](=O)[O-])NN=Cc1ccc(OCC)c(OC)c1 [Compound 97]	35.8%		70%	mortality(%) Helicoverpa armigera (500 μg/mL) ([3]; in vivo): 40%
CNC(=N[N+](=O)[O-])NN=Cc1ccco1 [Compound 124]				mortality(%) bemisia tabaci gennadius (500 μg/mL) ([1]; in vivo): 88.68%
C=CC=NNC(=N[N+](=O)[O-])NCCCC [Compound 41]	74.7%	20%	10%	
CCC=NNC(=N[N+](=O)[O-])NCc1ccccc1 [Compound 14]	18.8%	40%	30%	
CCNC(=N[N+](=O)[O-])NN=Cc1ccc(N(C)C)cc1 [Compound 69]	90.6%		80%	mortality(%) Helicoverpa armigera (500 μg/mL) ([3]; in vivo): 30%
CCCCNC(=N[N+](=O)[O-])NN=CC=C(C)CCC=C(C)C [Compound 19]	67.5%		60%	mortality(%) Helicoverpa armigera (500 μg/mL) ([3]; in vivo): 40%
CCCCC=NNC(=N[N+](=O)[O-])NCCC [Compound 51]	13.3%	30%	10%	
CC=CC=NNC(=N[N+](=O)[O-])NC [Compound 31]	42.6%	60%	10%	
CCCNC(=N[N+](=O)[O-])NN=Cc1ccccc1Cl [Compound 90]	41.2%		50%	mortality(%) Helicoverpa armigera (500 μg/mL) ([3]; in vivo): 10%
CC(C)=CCCC(C)=CC=NNC(=N[N+](=O)[O-])NCc1ccccc1 [Compound 22]	7.1%		20%	mortality(%) Helicoverpa armigera (500 μg/mL) ([3]; in vivo): 20%
CCCC=NNC(=N[N+](=O)[O-])NCC [Compound 24]	4.7%	40%	0%	
C=CC=NNC(=N[N+](=O)[O-])NCC=C [Compound 42]	37.1%	20%	0%	
CCOc1ccc(C=NNC(=N[N+](=O)[O-])NCc2ccc(Cl)nc2)cc1OC [Compound 134]				mortality(%) bemisia tabaci gennadius (500 μg/mL) ([1]; in vivo): 1.82%
CCOc1ccc(C=NNC(=N[N+](=O)[O-])NCc2ccccc2)cc1OC [Compound 98]	13.3%		10%	mortality(%) Helicoverpa armigera (500 μg/mL) ([3]; in vivo): 40%

Compound	mortality(%) myzus persicae (600 μg/mL) ([2]; in vivo)	mortality(%) Helicoverpa armigera (500 μg/mL) ([3]; 500 μg/mL, 48 hours)	mortality(%) asparagus caterpillar (500 μg/mL) ([4]; in vivo)	also measured
C=CCNC(=N[N+](=O)[O-])NN=CCCC [Compound 27]	65.1%	30%	40%	
CNC(=N[N+](=O)[O-])NN=CC(C)C [Compound 1, 2-isobutylidene-N-methyl-N′-nitrohydrozinecarboximidamide]	4.7%	40%	40%	
C#CCNC(=N[N+](=O)[O-])NN=CC=CC [Compound 36]	35.0%	30%	50%	
C=CCNC(=N[N+](=O)[O-])NN=Cc1ccccc1OC [Compound 76]	3.4%	40%	80%	
CC(C)C=NNC(=N[N+](=O)[O-])NCc1ccc(Cl)nc1 [Compound 8]	87.0%		40%	mortality(%) Helicoverpa armigera (500 μg/mL) ([3]; in vivo): 60%
CCCNC(=N[N+](=O)[O-])NN=Cc1ccccc1OC [Compound 73]	20.2%	50%	70%	
C#CCNC(=N[N+](=O)[O-])NN=Cc1ccc(F)cc1 [Compound 102]	31.6%		50%	mortality(%) Helicoverpa armigera (500 μg/mL) ([3]; in vivo): 50%
CCNC(=N[N+](=O)[O-])NN=CC=C(C)CCC=C(C)C [Compound 17]	19.8%		40%	mortality(%) Helicoverpa armigera (500 μg/mL) ([3]; in vivo): 40%
CCC=NNC(=N[N+](=O)[O-])NCCC [Compound 10]	78.3%	80%	20%	
C#CCNC(=N[N+](=O)[O-])NN=Cc1ccccc1OC [Compound 77]	4.2%	30%	50%	
C#CCNC(=N[N+](=O)[O-])NN=CCCC [Compound 28]	11.4%	60%	70%	
C=CCNC(=N[N+](=O)[O-])NN=Cc1ccc(F)cc1 [Compound 101]	17.7%		30%	mortality(%) Helicoverpa armigera (500 μg/mL) ([3]; in vivo): 40%
CCCNC(=N[N+](=O)[O-])NN=CC(C)C [Compound 3]	14.4%	30%	20%	
CNC(=N[N+](=O)[O-])NN=Cc1ccc(F)cc1 [Compound 123]				mortality(%) bemisia tabaci gennadius (500 μg/mL) ([1]; in vivo): 4.69%
Cc1ccc(C=NNC(=N[N+](=O)[O-])NCc2ccc(Cl)nc2)cc1 [Compound 107]		10%		mortality(%) myzus persicae (600 μg/mL) ([2]; 600 μg/mL): 3.7%; mortality(%) asparagus caterpillar (500 μg/mL) ([4]; 500 μg/mL, 48 hours): 20%
CC=CC=NNC(=N[N+](=O)[O-])NCCC [Compound 33]	19.5%	70%	70%	
CCCC=NNC(=N[N+](=O)[O-])NCCCC [Compound 26]	65.3%	20%	60%	
CCNC(=N[N+](=O)[O-])NN=Cc1ccc(F)cc1 [Compound 129]				mortality(%) bemisia tabaci gennadius (500 μg/mL) ([1]; in vivo): 8.62%
C=CC=NNC(=N[N+](=O)[O-])NCCC [Compound 40]	8.3%	30%	20%	
O=[N+]([O-])N=C(NCc1ccccc1)NN=Cc1ccc(F)cc1 [Compound 133]				mortality(%) bemisia tabaci gennadius (500 μg/mL) ([1]; in vivo): 3.77%
CCCCNC(=N[N+](=O)[O-])NN=Cc1ccccc1Cl [Compound 91]	1.2%		80%	mortality(%) Helicoverpa armigera (500 μg/mL) ([3]; in vivo): 0%
CCCCCCC=NNC(=N[N+](=O)[O-])NCCC [Compound 45]	16.9%	20%	20%	
CCC=NNC(=N[N+](=O)[O-])NCC [Compound 9]	54.2%	60%	20%	
